Experimental findings from ChEMBL document CHEMBL4229404, “Druggability Assessment of Targets Used in Kinetic Target-Guided Synthesis” (J Med Chem, 2018) are described below.

The target in assay [1] is HTH-type transcriptional regulator EthR (Mycobacterium tuberculosis, UniProt P9WMC1). Put plainly: Inhibition of Mycobacterium tuberculosis EthR.
In the next assay the target is T1, Chitinase B (Serratia marcescens, UniProt P11797).
T1 sequence (P11797 whole entry): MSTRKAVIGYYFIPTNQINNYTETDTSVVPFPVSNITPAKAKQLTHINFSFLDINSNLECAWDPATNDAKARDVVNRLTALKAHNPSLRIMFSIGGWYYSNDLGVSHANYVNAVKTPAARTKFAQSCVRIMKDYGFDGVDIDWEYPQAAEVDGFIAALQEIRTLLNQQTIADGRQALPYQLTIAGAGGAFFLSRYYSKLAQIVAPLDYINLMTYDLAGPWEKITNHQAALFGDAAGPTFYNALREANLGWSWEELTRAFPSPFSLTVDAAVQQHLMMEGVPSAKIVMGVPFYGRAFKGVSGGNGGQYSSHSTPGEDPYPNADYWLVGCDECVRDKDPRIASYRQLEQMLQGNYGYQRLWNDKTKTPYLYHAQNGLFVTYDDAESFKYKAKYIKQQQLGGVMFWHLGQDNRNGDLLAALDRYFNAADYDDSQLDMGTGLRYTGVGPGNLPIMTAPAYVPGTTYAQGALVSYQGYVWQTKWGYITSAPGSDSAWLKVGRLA
Description: Inhibition of Serratia marcescens 6x-His-tagged ChiB after 20 hrs by LCMS-SIR analysis.

A further assay has as its target Carbonic anhydrase 2 (Homo sapiens, UniProt P00918). Description: Inhibition of CA2 (unknown origin).
For assay [2], the target named is T2, Bifunctional ligase/repressor BirA (Staphylococcus aureus, UniProt A0A0E7NXW5).
T2 sequence (A0A0E7NXW5 whole entry): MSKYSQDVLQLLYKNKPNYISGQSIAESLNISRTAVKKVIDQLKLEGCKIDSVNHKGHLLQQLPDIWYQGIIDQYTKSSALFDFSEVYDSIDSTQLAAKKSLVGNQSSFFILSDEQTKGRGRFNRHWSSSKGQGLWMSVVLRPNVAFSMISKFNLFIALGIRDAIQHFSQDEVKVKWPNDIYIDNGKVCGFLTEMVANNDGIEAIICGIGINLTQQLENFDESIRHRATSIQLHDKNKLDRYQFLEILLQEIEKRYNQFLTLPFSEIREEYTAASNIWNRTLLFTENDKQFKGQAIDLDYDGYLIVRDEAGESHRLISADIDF
Put plainly: Inhibition of Staphylococcus aureus biotin protein ligase by LC/MS-SIM analysis.

The next assay is filed under the species Homo sapiens. Put plainly: Inhibition of human recombinant 14-3-3 protein at 300 uM after 8 hrs.
Another assay concerns the target Acetylcholinesterase (Electrophorus electricus, UniProt O42275).

Chain of Acetylcholinesterase (O42275 whole entry): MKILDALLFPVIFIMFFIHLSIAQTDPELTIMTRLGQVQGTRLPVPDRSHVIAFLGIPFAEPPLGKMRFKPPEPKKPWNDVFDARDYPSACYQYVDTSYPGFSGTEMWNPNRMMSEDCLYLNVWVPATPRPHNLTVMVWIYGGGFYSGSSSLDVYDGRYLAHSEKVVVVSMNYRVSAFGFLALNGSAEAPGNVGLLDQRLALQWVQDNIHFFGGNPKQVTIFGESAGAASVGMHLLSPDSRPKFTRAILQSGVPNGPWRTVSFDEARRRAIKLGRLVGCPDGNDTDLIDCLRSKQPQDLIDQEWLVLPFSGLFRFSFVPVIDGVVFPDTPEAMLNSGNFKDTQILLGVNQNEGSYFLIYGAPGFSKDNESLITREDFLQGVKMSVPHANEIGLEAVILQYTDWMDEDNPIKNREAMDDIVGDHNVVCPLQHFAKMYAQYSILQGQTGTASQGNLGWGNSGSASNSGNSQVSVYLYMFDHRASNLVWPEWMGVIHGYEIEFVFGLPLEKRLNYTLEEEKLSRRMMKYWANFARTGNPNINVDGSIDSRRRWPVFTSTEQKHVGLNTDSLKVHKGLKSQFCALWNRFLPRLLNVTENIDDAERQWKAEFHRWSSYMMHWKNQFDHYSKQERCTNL
Chain of HTH-type transcriptional regulator EthR (P9WMC1 whole entry): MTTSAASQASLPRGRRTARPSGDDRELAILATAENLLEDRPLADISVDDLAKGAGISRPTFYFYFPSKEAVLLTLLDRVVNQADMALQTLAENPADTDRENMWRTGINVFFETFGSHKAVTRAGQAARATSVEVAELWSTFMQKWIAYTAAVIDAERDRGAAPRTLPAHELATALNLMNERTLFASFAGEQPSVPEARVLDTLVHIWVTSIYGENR
Description for Acetylcholinesterase: Binding affinity to electric eel AChE after 24 hrs by LC/MS-SIM analysis

`O=C(Cn1cc(CNS(=O)(=O)c2ccc(I)cc2)nn1)N1CCC(c2nc(-c3cccs3)no2)CC1` came in with a 50% inhibitory concentration (IC50) in assay [1] of 580 nM.
`[H]/N=C(/NCCC[C@H](NC(=O)Cn1nncc1CO/N=C/c1ccnc2ccccc12)C(=O)N(Cc1ccccc1)Cc1ccccc1)NC(=O)NC`: 22 nM corresponded to half-maximal inhibition at Chitinase B (IC50).
On Carbonic anhydrase 2, `CCOC(=O)c1cccc(CSCc2ccc(S(N)(=O)=O)cc2)c1` displayed a 50% inhibitory concentration (IC50) of 59 nM.
On to `Nc1ncnc2c1ncn2CCCCn1cc(CCCCC[C@@H]2SC[C@@H]3NC(=O)N[C@@H]32)nn1`, for which the inhibition constant (Ki) in assay [2] turned out to be 660 nM.
Turning to `C=CC(C)(C)OC[C@H]1O[C@H](O[C@@H]2C3=C([C@H](C)CNC(=O)[C@H]4CO4)C[C@H](O)[C@]3(C)/C=C3/[C@@H](COC)CC[C@@]3(C)[C@@H](C)[C@H]2O)[C@H](O)[C@@H](O)[C@@H]1O`, in the assay filed under Homo sapiens, the inhibition was found to be 37%.
At Acetylcholinesterase, `CC[N+](C)(CC)CCC[n+]1c(-c2ccccc2)c2cc(N)ccc2c2ccccc21` had an equilibrium dissociation constant (Kd) of 1100 nM.

By IC50 is commonly meant the concentration at which inhibition is half-maximal. By Ki is commonly meant the equilibrium dissociation constant of an inhibitor or competing ligand from its target. A low value points to tighter binding. Broadly, the inhibition is the drop in the measured response relative to a control, in per cent. As usually defined, the Kd is the concentration at which binding is half-saturated. High values mean weaker binding, low ones tighter binding.
